Measurements published in PubChem BioAssay (NCI).
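How tested: cells in 96-well plates exposed to compound for 48 hours at five concentrations. GI50: concentration for 50% inhibition of growth. Definition used: TGI = concentration required for complete inhibition of growth.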

Tests used:
Test in all cases: DTP human tumour cell line panel, 48 h
TK-10 renal = tested on: TK-10 renal
SF-539 CNS = tested on: SF-539 CNS
HOP-92 NSCLC = tested on: HOP-92 NSCLC
NCI-H23 lung = tested on: NCI-H23 lung
RPMI-8226 leukemia = tested on: RPMI-8226 leukemia
A549 NSCLC = tested on: A549 NSCLC
MOLT-4 leukemia = tested on: MOLT-4 leukemia
NCI-H226 lung = tested on: NCI-H226 lung

Structure (SMILES)	GI50 (TK-10 renal) [µM]	TGI (TK-10 renal) [µM]	GI50 (SF-539 CNS) [µM]	TGI (SF-539 CNS) [µM]	GI50 (HOP-92 NSCLC) [µM]	TGI (HOP-92 NSCLC) [µM]	GI50 (NCI-H23 lung) [µM]	TGI (NCI-H23 lung) [µM]	GI50 (RPMI-8226 leukemia) [µM]	TGI (RPMI-8226 leukemia) [µM]	GI50 (A549 NSCLC) [µM]	TGI (A549 NSCLC) [µM]	GI50 (MOLT-4 leukemia) [µM]	TGI (MOLT-4 leukemia) [µM]	GI50 (NCI-H226 lung) [µM]	TGI (NCI-H226 lung) [µM]
COc1cc2c(cc1O)CC[C@@H]1[C@@H]2CC[C@]2(C)[C@@H](NCCN(C)C)CC[C@@H]12	0.467	0.932	0.083	0.264	0.124	0.742	0.161	0.636	0.159	0.665	0.3	0.827	0.187	0.695	0.698	1.59
OC1[C@H]([C@H]2CCCC[C@@H]2O)CCC[C@@H]1[C@@H]1CCCC[C@H]1O (stereo partly drawn)	–	> 100	–	> 100	–	> 100	–	> 100	–	> 100	–	> 100	–	> 100	–	> 100
CC1CC[C@]2(C(=O)O)CCC3(COC(=O)/C=C\c4ccc(O)cc4)C(=CCC4[C@@]5(C)CC[C@H](O)C(C)(C)C5CC[C@]43C)[C@@H]2[C@H]1C (stereo partly drawn)	–	44.7	–	31.3	–	–	–	28.5	–	> 100	–	26.3	–	> 100	–	39.5
NC1=NC(=O)/C(=C/c2ccccc2[N+](=O)[O-])C(N)=N1	–	> 100	–	> 100	–	> 100	–	> 100	–	> 100	–	> 100	–	> 100	–	> 100
CN1N=CSC12C(=O)N(c1ccc(Cl)cc1)C(=O)N2c1ccc(Cl)cc1 (stereo not drawn)	–	81.1	–	> 100	–	8.92	–	5.14	–	7.21	–	> 100	–	12.3	–	8.66
Cc1cn(Cc2ccccc2CCO)c(=S)[nH]c1=O	–	> 100	–	> 100	–	> 100	–	> 100	–	> 100	–	> 100	–	> 100	–	> 100
COc1cc(/C=C/c2ccncc2)cc(OC)c1OC	–	> 100	–	> 100	–	> 100	–	> 100	–	> 100	–	> 100	–	> 100	–	> 100
CC(C)(C)NNC(=O)/C(=C/c1ccc([N+](=O)[O-])cc1)NC(=O)c1ccccc1	–	> 100	–	> 100	–	> 100	–	> 100	–	> 100	–	> 100	–	> 100	–	96.5
Cc1cc(N(CCC#N)CCC#N)ccc1/C=C1N=C(/C=C\c2ccccc2)OC\1=O	–	> 100	–	> 100	–	> 100	–	> 100	–	> 100	–	> 100	–	> 100	–	> 100
CC(C)(C)OC1=C(OC(C)(C)C)C(O)(c2ccccc2)C1=O (stereo not drawn)	–	> 100	–	> 100	–	–	–	> 100	–	> 100	–	> 100	–	> 100	–	–
C[N+](C)(C)CC1CCCC/C1=N\OC(=O)c1ccccc1 (stereo not drawn)	–	> 100	–	> 100	–	> 100	–	> 100	–	> 100	–	> 100	–	> 100	–	–
CN1C(=O)CC(c2cccc(C3CC(=O)N(C)C3=O)n2)C1=O (stereo not drawn)	–	> 100	–	> 100	–	> 100	–	> 100	–	–	–	> 100	–	> 100	–	> 100
COc1ccc(C2CC(=O)c3c(O)cc(O)cc3O2)cc1O (stereo not drawn)	–	> 100	–	> 100	–	–	–	> 100	–	> 100	–	> 100	–	> 100	–	> 100
CN(C)c1ccc2c(=O)c3ccccc3oc2n1	–	> 100	–	–	–	> 100	–	> 100	–	> 100	–	> 100	–	> 100	–	–
O=C(Nc1ccccc1-c1n[nH]c(=S)[nH]c1=O)C(F)(F)F	–	> 100	–	> 100	–	> 100	–	> 100	–	–	–	> 100	–	> 100	–	> 100
CS/C(=N\C(=S)N(C)C)N(c1ccccc1)c1nc(=[N+](C)C)ss1	–	> 100	–	25.5	–	51.2	–	51.7	–	6.24	–	22.3	–	18.3	–	–
O=C(/C=C/c1ccc(OCCCOc2ccc(/C=C/C(=O)c3ccccc3)cc2)cc1)c1ccccc1	–	> 100	–	> 100	–	–	–	> 100	–	> 100	–	> 100	–	> 100	–	> 100
Cc1ccc(NC(=O)c2cc3cc(N=Nc4ccc(Br)cc4)ccc3oc2=O)cc1	–	> 100	–	–	–	> 100	–	> 100	–	> 100	–	> 100	–	> 100	–	> 100
Cc1ccc(S(=O)(=O)c2c(N)c3nc4ccccc4n3c3nc4ccccc4nc23)cc1	–	–	–	> 100	–	–	–	> 100	–	> 100	–	> 100	–	> 100	–	> 100
C/C(CN1C(=O)c2ccccc2C1=O)=N\NS(=O)(=O)c1ccc(C)cc1	–	> 100	–	> 100	–	–	–	> 100	–	> 100	–	> 100	–	> 100	–	> 100
